Results: patent US7998969B2, “Non-nucleoside reverse transcriptase inhibitors” (Roche Palo Alto LLC, priority 2006, dated 2011)
Like-named read-outs stand apart in the source and are kept apart here.

Tests used:
[1] = test system: wild-type laboratory strain HIV-1HXB2; experiment: Recombinant HIV-1 Antiviral Assay (MTT cell viability assay with MT-4 cells); assay type: cell-based; conditions: Human immunodeficiency virus 1, MT4, 120 h
Experimental: Recombinant HIV-1 Antiviral Assay
The sensitivity of a wild-type laboratory strain HIV-1HXB2 to described compounds was determined by the 3-[4,5-dimethylthiazol-2yl]-2,5-diphenyltetrazolium bromide (MTT) cell viability assay with MT-4 cells (R. Pauwels et al., “Rapid and automated tetrazolium-based colorimetric assay for the detection of anti-HIV compounds,” J. Virological Methods 1988 20:309-321). Briefly, MT-4 cells were incubated with virus (MOI 0.0001) for 1 h at 37° C. and then resuspended at 7.5×10^5/mL in RPMI 1640 (with out phenol) (Gibco) with 10% FCS and antibiotics and plated out onto a 96 well plate (Corning Costar, USA). After 5 days incubation 20 μL of MTT (Sigma-Aldrich) (5 mg/mL in PBS) was added and the plates were incubated for 2 h before the addition of 170 μL of acidified IPA. The absorbance was measured at 540 nm and the TCID50 determined by Spearman-Karber method.

[2] = biological target: HIV-1 reverse transcriptase (HIV-RT enzyme) (Human immunodeficiency virus type 1 group M subtype B, UniProt P03366); experiment: HIV-1 Reverse Transcriptase Assay Inhibitor IC50 Determination (RNA-dependent DNA polymerase activity, SPA); assay type: biochemical
Experimental: HIV-1 Reverse Transcriptase Assay Inhibitor IC50 Determination
RNA-dependent DNA polymerase activity was measured using a biotinylated primer oligonucleotide and tritiated dNTP substrate. Newly synthesized DNA was quantified by capturing the biotinylated primer molecules on streptavidin coated Scintillation Proximity Assay (SPA) beads (Amersham). The sequences of the polymerase assay substrate were: 18 nt DNA primer, 5′-Biotin/GTC CCT GTT CGG GCG CCA-3′; 47 nt RNA template, 5′-GGGUCUCUCUGGUUAGACCACUCUAGCAGUGGCGCCCGAACAGGGAC-3′. The biotinylated DNA primer was obtained from the Integrated DNA Technologies Inc. and the RNA template was synthesized by Dharmacon. The DNA polymerase assay (final volume 50 μl) contained 32 nM biotinylated DNA primer, 64 nM RNA substrate, dGTP, dCTP, dTTP (each at 5 μM), 103 nM [^3H]-dATP (specific activity=[…]), in 45 mM Tris-HCl, pH 8.0, 45 mM NaCl, 2.7 mM Mg(CH3COO)2, 0.045% Triton X-100 w/v, 0.9 mM EDTA. The reactions contained 5 μl of serial compound dilutions in 100% DMSO for IC50 determination and the final concentrations of DMSO were 10%. Reactions were initiated by the addition of […] of the HIV-RT enzyme (final concentrations of 1-3 nM). Protein concentrations were adjusted to provide linear product formation for at least 30 min of incubation. After incubation at 30° for 30 min, the reaction was quenched by addition of 50 μl of 200 mM EDTA (pH 8.0) and 2 mg/ml SA-PVT SPA beads (Amersham, RPNQ0009, reconstituted in 20 mM Tris-HCl, pH 8.0, 100 mM EDTA and 1% BSA). The beads were left to settle overnight and the SPA signals were counted in a 96-well top counter-NXT (Packard). IC50 values were obtained by sigmoidal regression analysis using GraphPad Prism 3.0 (GraphPad Software, Inc.).

[3] = MT-4 cells infected with HIV-1HXB2, MTT readout after 5 days, read-out: Antiviral Activity IC50
[4] = SPA polymerase assay, 30 min at 30°, read-out: HIVRT inhibition IC50

SMILES | IC50 [1, 3] | IC50 [2] | IC50 [2, 4] | also measured
Cc1cc(C#N)cc(C)c1Oc1ccnc(NC2CCN(Cc3ccccc3)CC2)n1 [I-1, 4-[2-(1-Benzyl-piperidin-4-ylamino)-pyrimidin-4-yloxy]-3,5-dimethyl-benzonitrile] | – | – | – | melting point: 162 to 163.3 °C
Cc1cc(C#N)cc(C)c1Nc1ccnc(NC2CCN(Cc3ccc(S(C)(=O)=O)cc3Cl)CC2)n1 [III-1, 4-{2-[1-(2-Chloro-4-methanesulfonyl-benzyl)-piperidin-4-ylamino]-pyrimidin-4-ylamino}-3,5-dimethyl-benzonitrile] | 0.0022 µM | 25.7 nM | – | –
Cc1cc(C#N)cc(C)c1Oc1ccnc(NC2CCN(c3cc(Cl)cc(C#N)c3)CC2)n1 [IV-23] | – | – | 37.7 nM | –
Cc1cc(C#N)cc(C)c1Oc1ccnc(NC2CCN(c3cccc(S(N)(=O)=O)c3)CC2)n1 [IV-3] | 0.0004 µM | 14.7 nM | – | –
Cc1cc(C#N)cc(C)c1Oc1ccnc(NC2CCN(Cc3ccc(S(C)(=O)=O)cc3)CC2)n1 [I-3, 4-{2-[1-(4-Methanesulfonyl-benzyl)-piperidin-4-ylamino]-pyrimidin-4-yloxy}-3,5-dimethyl-benzonitrile] | 0.003 µM | 34.1 nM | – | –
Cc1cc(C#N)cc(C)c1Nc1nc(NC2CCN(c3cccc(C(N)=O)c3)CC2)ncc1Br [V-5] | 0.0015 µM | 28.1 nM | – | –
Cc1cc(C#N)cc(C)c1Oc1nc(NC2CCN(Cc3ccccc3)CC2)ncc1Br [I-2, 4-[2-(1-Benzyl-piperidin-4-ylamino)-5-bromo-pyrimidin-4-yloxy]-3,5-dimethyl-benzonitrile] | – | – | – | melting point: 158 to 159.8 °C
Cc1cc(C#N)cc(C)c1Oc1nc(NC2CCN(Cc3ccc(S(N)(=O)=O)cc3Cl)CC2)nc(N)c1Br [II-1] | – | – | 105 nM | IC50 ([1]; read-out: Antiviral Activity IC50(μM)): 0.0086 µM
Cc1cc(C#N)cc(C)c1Nc1nc(NC2CCN(c3cccc(C#N)c3)CC2)ncc1Br [V-3] | – | – | 40 nM | –
Cc1cc(C#N)cc(Cl)c1Oc1nc(NC2CCN(c3cccc(C(N)=O)c3)CC2)ncc1Br [IV-13] | 0.0058 µM | 27.9 nM | – | –
